Patent publication US10030027B2, “Soluble guanylate cyclase stimulators” (MERCK SHARP & DOHME CORP., priority 2015, dated 2018)
pEC50, pKi: −log10 of the molar value.

What was measured:
sGC α1/β1 heterodimer = sGC α1/β1 heterodimer (Homo sapiens (Human), UniProt Q02108+Q02153); test: Cell-based sGC functional assay (cyclic GMP assay for sGC activator: CASA assay); design: % Activation: concentration or dose not given beside the values; settings: CHO-K1/sGC cells; for Emax: CHO-K1, activity expressed as percentage of compound A (standard), read-out: % Activation; for pEC50: inflection point, 4P fit, read-out: IP; for % Activation: activity expressed as percentage of compound A (standard)
How it was run: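 CHO-K1 cells stably expressing human sGC α1/β1 were pre-incubated 30 min at 25° C with or without 1 μM DETA-NO, then exposed to compound for 1 hr at 37° C with 0.5 mM IBMX and 2.5% DMSO final. Intracellular cGMP was measured by HTRF, expressed as % of reference sGC-HDA maximum; inflection point and maximum fold induction came from 4-parameter fits.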

[1] = target: human recombinant sGC enzyme (Homo sapiens (Human), UniProt Q02108+Q02153); test: Size Exclusion Chromatography (SEC) competition binding assay using [3H] Ex-77B as the radioligand; settings: [3H] Ex-77B radioligand, 24 hours at 37° C.
Procedure: Binding Assay: The binding potencies of sGC compounds to the human recombinant sGC enzyme were determined in a Size Exclusion Chromatography (SEC) competition binding assay using [^3H] Ex-77B as the radioligand. [^3H] Ex-77B was prepared using a standardardized tritium exchange procedure. The parent (non-labeled) molecule was first iodinated then a Pd-catalyzed iodine to tritium exchange provided the labeled compound. […] Assays were conducted in 96-well plates in a total volume of 200 μL. […] Non-specific binding was defined by competition with 1 μM of Ex-77B. After the incubation period, the binding mixtures were loaded onto the gel-filtration plate (ThermoFischer Cat. No. 89808) pre-equilibrated with binding buffer and spun at 1000×g for 3 min at 4° C. on a Bench top centrifuge. The collected eluates in White Frame Clear Well Isoplates (Perkin Elmer Cat #6005040) received 100 μl of UltimaGold scintillation cocktail. The sealed plates were shaken vigorously and span, and counted after 6 hours with a Wallac Microbeta TriLux 1450 LSC & Luminescence Counter (Perkin Elmer). Data from competition experiments were analyzed to determine Ki values using one site fit Ki equation.

CC(C)(Cn1cc(C2(C)C(=O)Nc3nc(-c4nn(Cc5ccccc5F)c5cc(F)ccc45)nc(N)c32)cn1)C(=O)O (stereo not drawn) [Example 192A, 3-(4-{4-amino-2-[6-fluoro-1-(2-fluorobenzyl)-1H-indazol-3-yl]-5-methyl-6-oxo-6,7-dihydro-5H-pyrrolo[2,3-d]pyrimidin-5-yl}-1H-pyrazol-1-yl)-2,2-dimethyl-propanoic acid]
Emax (sGC α1/β1 heterodimer): 103% | pEC50 (sGC α1/β1 heterodimer): 5.98 | pKi [1]: 9.94

CC1(c2nc(-c3ccc(C(=O)O)cc3)cs2)C(=O)Nc2nc(-c3nn(Cc4ccccc4F)c4ncccc34)nc(N)c21 (stereo not drawn) [Example 147A, 4-(2-{4-amino-2-[1-(2-fluorobenzyl)-1H-pyrazolo[3,4-b]pyridin-3-yl]-5-methyl-6-oxo-6,7-dihydro-5H-pyrrolo [2,3-d]pyrimidin-5-yl}-1,3-thiazol-4-yl)benzoic acid]
Emax (sGC α1/β1 heterodimer): 73.4% | pEC50 (sGC α1/β1 heterodimer): 7.21 | pKi [1]: 10.12

CC1(c2nc(-c3cccc(C(=O)O)c3)cs2)C(=O)Nc2nc(-c3nn(CCC(F)(F)C(F)(F)F)c4cc(Cl)ccc34)nc(N)c21 (stereo not drawn) [Example 93A, 3-(2-{4-amino-2-[6-chloro-1-(3,3,4,4,4-pentafluorobutyl)-1H-indazol-3-yl]-5-methyl-6-oxo-6,7-dihydro-5H-pyrrolo[2,3-d]pyrimidin-5-yl}-1,3-thiazol-4-yl)benzoic acid]
Emax (sGC α1/β1 heterodimer): 63% | pEC50 (sGC α1/β1 heterodimer): 6.24 | pKi [1]: 9.22

Cc1cccc(Cn2nc(-c3nc(N)c4c(n3)NC(=O)C4(C)c3nc(CC(C)(C)C(=O)O)co3)c3ccc(Cl)cc32)c1F (stereo not drawn) [Example 187A, 3-(2-{4-amino-2-[6-chloro-1-(2-fluoro-3-methyl-benzyl)-1H-indazol-3-yl]-5-methyl-6-oxo-6,7-dihydro-5H-pyrrolo[2,3-d]pyrimidin-5-yl}-1,3-oxazol-4-yl)-2,2-dimethyl-propanoic acid]
Emax (sGC α1/β1 heterodimer): 97.1% | pEC50 (sGC α1/β1 heterodimer): 6.61 | pKi [1]: 10.54

CC(Cc1ccc(C2(C)C(=O)Nc3nc(-c4nn(CCCC(F)(F)F)c5ncccc45)nc(N)c32)cc1)C(=O)O (stereo not drawn) [Example 17AB, 3-(4-{4-amino-5-methyl-6-oxo-2-[1-(4,4,4-trifluorobutyl)-1H-pyrazolo[3,4-b]pyridin-3-yl]-6,7-dihydro-5H-pyrrolo[2,3-d]pyrimidin-5-yl}phenyl)-2-methylpropanoic acid]
Emax (sGC α1/β1 heterodimer): 77% | pEC50 (sGC α1/β1 heterodimer): 5.42 | pKi [1]: 9.03

C[C@@]1(c2ccc(CCC(=O)NS(C)(=O)=O)cc2)C(=O)Nc2nc(-c3nn(Cc4ccccc4F)c4cc(Cl)ccc34)nc(N)c21 [Example 259B, (S)-3-(4-{4-Amino-2-[6-chloro-1-(2-fluorobenzyl)-1H-indazol-3-yl]-5-methyl-6-oxo-6,7-dihydro-5H-pyrrolo[2,3-d]pyrimidin-5-yl}phenyl)-N-(methylsulfonyl)propanamide]
Emax (sGC α1/β1 heterodimer): 116% | pEC50 (sGC α1/β1 heterodimer): 6.25 | pKi [1]: 9.95

CC1(c2nc(C[C@H](N)C(=O)O)cs2)C(=O)Nc2nc(-c3nn(Cc4ccccc4F)c4cc(Cl)ccc34)nc(N)c21 (stereo partly drawn) [Example 234B, (S)-3-(2-{4-Amino-2-[6-chloro-1-(2-fluorobenzyl)-1H-indazol-3-yl]-5-methyl-6-oxo-6,7-dihydro-5H-pyrrolo[2,3-d]pyrimidin-5-yl}-1,3-thiazol-4-yl)-D-alanine]
Emax (sGC α1/β1 heterodimer): 135% | pEC50 (sGC α1/β1 heterodimer): 6.58 | pKi [1]: 9.02

CC(C)(Cc1ccc(C2(C)C(=O)Nc3nc(-c4nn(CCCC(F)(F)F)c5ncccc45)nc(N)c32)cc1)C(=O)O (stereo not drawn) [Example 16B, 3-(4-{4-amino-5-methyl-6-oxo-2-[1-(4,4,4-trifluorobutyl)-1H-pyrazolo[3,4-b]pyridin-3-yl]-6,7-dihydro-5H-pyrrolo[2,3-d]pyrimidin-5-yl}phenyl)-2,2-dimethylpropanoic acid]
Emax (sGC α1/β1 heterodimer): 96% | pEC50 (sGC α1/β1 heterodimer): 5.83 | pKi [1]: 8.95

CC(C)(Cc1csc([C@]2(C)C(=O)Nc3nc(-c4nn(CC5CCCCO5)c5ccccc45)nc(N)c32)n1)C(=O)O (single isomer, unassigned) [Example 229AB]
% Activation (sGC α1/β1 heterodimer): 72.9% | pEC50 (sGC α1/β1 heterodimer): 6.75 | pKi [1]: 9.62

C[C@@]1(c2ccc(CCC(=O)N[C@H](CO)C(=O)O)cc2)C(=O)Nc2nc(-c3nn(Cc4ccccc4F)c4ncccc34)nc(N)c21 [Example 106B, (5S)-(3-(4-{4-amino-2-[1-(2-fluorobenzyl)-1H-pyrazolo[3,4-b]pyridin-3-yl]-5-methyl-6-oxo-6,7-dihydro-5H-pyrrolo[2,3-d]pyrimidin-5-yl}phenyl)propanoyl)-D-serine]
Emax (sGC α1/β1 heterodimer): 70% | pEC50 (sGC α1/β1 heterodimer): 5.82 | pKi [1]: 10.24

CC1CCC(Cn2nc(-c3nc(N)c4c(n3)NC(=O)C4(C)c3nc(CC(C)(C)C(=O)O)co3)c3cccnc32)CC1 (single isomer, unassigned) [Example 126AB, 3-{2-[4-amino-5-methyl-2-{1-[4-methylcyclohexylmethyl]-1H-pyrazolo[3,4-b]pyridin-3-yl}-6-oxo-6,7-dihydro-5H-pyrrolo[2,3-d]pyrimidin-5-yl]-1,3-oxazol-4-yl}-2,2-dimethylpropanoic acid]
% Activation (sGC α1/β1 heterodimer): 109.2% | pEC50 (sGC α1/β1 heterodimer): 6.70 | pKi [1]: 10.11

CC(C)(NC(=O)CCc1ccc([C@]2(C)C(=O)Nc3nc(-c4nn(Cc5ccccc5F)c5ncccc45)nc(N)c32)cc1)C(=O)O [Example 101B, (S)-2-(3-(4-{4-amino-2-[1-(2-fluorobenzyl)-1H-pyrazolo[3,4-b]pyridin-3-yl]-5-methyl-6-oxo-6,7-dihydro-5H-pyrrolo[2,3-d]pyrimidin-5-yl}phenyl)propanamido)-2-methylpropanoic acid]
Emax (sGC α1/β1 heterodimer): 111% | pEC50 (sGC α1/β1 heterodimer): 5.63 | pKi [1]: 10.59

C[C@@]1(c2ccc(CCC(=O)O)cc2)C(=O)Nc2nc(-c3nn(CC4CCCC4)c4ccccc34)nc(N)c21 [Example 227B, (S)-3-(4-{4-amino-2-[1-(cyclopentyl-methyl)-1H-indazol-3-yl]-5-methyl-6-oxo-6,7-dihydro-5H-pyrrolo[2,3-d]pyrimidin-5-yl}phenyl)propanoic acid]
Emax (sGC α1/β1 heterodimer): 63.5% | pEC50 (sGC α1/β1 heterodimer): 7.13 | pKi [1]: 9.84

CC(C)(Cc1csc([C@]2(C)C(=O)Nc3nc(-c4nn(CCCC(F)(F)F)c5ncccc45)nc(N)c32)n1)C(=O)O [Example 87B, (S)-3-(2-{4-amino-5-methyl-6-oxo-2-[1-(4,4,4-trifluorobutyl)-1H-pyrazolo[3,4-b]pyridin-3-yl]-6,7-dihydro-5H-pyrrolo[2,3-d]pyrimidin-5-yl}-1,3-thiazol-4-yl)-2,2-dimethylpropanoic acid]
Emax (sGC α1/β1 heterodimer): 97% | pEC50 (sGC α1/β1 heterodimer): 6.26 | pKi [1]: 9.11

CC(C)(Cc1coc(C2(C)C(=O)Nc3nc(-c4nn(Cc5ccccc5F)c5ncccc45)nc(N)c32)n1)C(=O)O (stereo not drawn) [Example 1A, 3-(2-{4-Amino-2-[1-(2-fluorobenzyl)-1H-pyrazolo[3,4-b]pyridin-3-yl]-5-methyl-6-oxo-6,7-dihydro-5H-pyrrolo[2,3-d]pyrimidin-5-yl}oxazol-4-yl)-2,2-dimethylpropanoic acid]
Emax (sGC α1/β1 heterodimer): 120% | pEC50 (sGC α1/β1 heterodimer): 6.39 | pKi [1]: 10.33

CC(C)(Cc1csc([C@]2(C)C(=O)Nc3nc(-c4nn(CC5CCCCO5)c5ncccc45)nc(N)c32)n1)C(=O)O (single isomer, unassigned) [Example 123AA]
Emax (sGC α1/β1 heterodimer): 79% | pEC50 (sGC α1/β1 heterodimer): 6.06 | pKi [1]: 8.91
